# Source: patent US4634704A, “Anti-allergic five membered heterocyclic ring containing N-(bicyclic heterocycyl)-4-piperidinamines” (Janssen Pharmaceutica, N.V., priority 1984, dated 1987)
# Where a name gives a salt, the structure may show the parent alone. Read-outs that look alike come from different tables or passages of the source.
# Key:
# [1] = test system: compound 48/80-induced lethality; test: Protection of rats from compound 48/80-induced lethality; type: in vivo, rat (male, inbred Wistar strain); conditions: subcutaneous or oral, 1 h before compound 48/80 0.5 mg/kg i.v., survival after 4 h; for ED50: Rattus norvegicus, 4 h, read-out: compound 48/80 lethality test in rats-ED50, dose protecting 50% of animals
# Method: Protection of rats from compound 48/80-induced lethality.
# The protection from compound 48/80-induced lethal circulatory collapse appears to be a simple way of evaluating quantitatively the antihistaminic activity of test compounds. Male rats of an inbred Wistar strain, weighing 240-260 g were used in the experiment. After overnight starvation the rats were transferred to conditioned laboratories (temp.=21±1° C., relative humidity=65±5%).
# The rats were treated subcutaneously or orally with a test compound or with the solvent (NaCl solution, 0.9%). […] Survival after 4 hours is therefore considered to be a safe criterion of a protective effect of drug administration.
# The ED50 -values of the compounds of formula (I) are listed in the first column of table 1. Said ED50 -values are the values in mg/kg body weight at which the tested compounds protect 50% of the tested animals against compound 48/80-induced lethality.
# [2] = test system: effects of serotonin in the gastric lesion test; test: Antagonistic activity on the effects of serotonin in the gastric lesion test (lesions induced by compound 48/80); type: in vivo, rat (male, Wistar inbred strain)
# Text: The compounds of formula (I) and the pharmaceutically acceptable acid addition salts thereof are also potent serotonin-antagonists. The potency of the subject compounds as serotonin-antagonists is clearly evidenced by the results obtained in the following tests wherein the antagonistic activity of the subject compounds on the effect of serotonin is examined.
# Antagonistic activity on the effects of serotonin in the gastric lesion test.
# The shock, followed by dead, can be avoided if the rats are pretreated with a classical H 1 antagonist.
# Male rats of a Wistar inbred strain, weighing 220-250 g, were starved overnight, water being available ad libitum. The test compounds were administered orally as a solution or as a suspension in aqueous medium. A control rat and a "blank" rat received the test compound. One hour later 5-[4-(diphenylmethyl)-1-piperazinylmethyl]-1-methyl-1H-benzimidazole-2-methanol was administered subcutaneously to all rats at the dose of 2.5 mg/kg.
# Four hours after the intravenous injection of compound 48/80, the rats were decapitated and the stomachs were removed. Subsequently the stomachs were inspected for distension and contents (blood, fluid, food) and thoroughly rinsed. The macroscopic lesions were scored from 0 to +++, 0 corresponding to the complete absence of visible lesions and the highest score corresponding to reddish rough patches covering more than half the glandular area.
# [3] = Rattus norvegicus; read-out: gastric lesion test ED50
# [4] = Rattus norvegicus, read-out: gastric lesion test ED50
Compound,ED50 [1] [mg/kg],"ED50 [2, 3] [mg/kg]","ED50 [2, 4] [mg/kg]","compound 48/80 lethality test in rats-ED50 ([1]; dose protecting 50% of animals, 0.5 mg/kg, 240 min) [mg/kg body weight]"
"Cc1nc[nH]c1CN1CCC(Nc2nc3ccccc3n2Cc2ccc(F)cc2)CC1 [Compound 7, 1-(4-fluorophenylmethyl)-N-[1-[(4-methyl-1H-imidazol-5-yl)methyl]-4-piperidinyl]-1H-benzimidazol-2-amine]",0.02,0.31,–,–
"Cc1nnc(NCCN2CCC(Nc3nc4ccccc4n3Cc3ccc(F)cc3)CC2)s1 [Compound 15, 1-[(4-fluorophenyl)methyl]-N-[1-[2-[(5-methyl-1,3,4-thiadiazol-2-yl)amino]ethyl]-4-piperidinyl]-1H-benzimidazol-2-amine]",0.04,0.31,–,–
Fc1ccc(Cn2c(NC3CCN(CCNc4nccs4)CC3)nc3cccnc32)cc1 [Compound 17],0.02,0.16,–,–
Nc1nnc(NCCN2CCC(Nc3nc4ccccc4n3Cc3ccc(F)cc3)CC2)s1 [Compound 18],0.02,–,0.04,–
Fc1ccc(Cn2c(NC3CCN(CCCCCNc4nccs4)CC3)nc3ccccc32)cc1 [Compound 21],0.16,0.31,–,–
Clc1ccc(Cn2c(NC3CCN(CCNc4nccs4)CC3)nc3ccccc32)cc1 [Compound 25],0.31,0.63,–,–
c1csc(Cn2c(NC3CCN(CCNc4nccs4)CC3)nc3ccccc32)c1 [Compound 28],0.08,0.02,–,–
Cc1ccccc1Cn1c(NC2CCN(CCNc3nccs3)CC2)nc2ccccc21 [Compound 29],0.63,0.63,–,–
Fc1ccccc1Cn1c(NC2CCN(CCNc3nccs3)CC2)nc2ccccc21 [Compound 31],0.08,0.63,–,–
"c1coc(Cn2c(NC3CCN(CCNc4nccs4)CC3)nc3ccccc32)c1 [Compound 48, 1-(2-furanylmethyl)-N-[1-[2-(2-thiazolylamino)ethyl]-4-piperidinyl]-1H-benzimidazol-2-amine]",0.08,0.63,–,–
"c1ccc2c(c1)nc(NC1CCN(CCNc3nccs3)CC1)n2Cc1cscn1 [Compound 49, N-[1-[2-(2-thiazolylamino)ethyl]-4-piperidinyl]-1-(4-thiazolylmethyl)-1H-benzimidazol-2-amine ethanedioate (2:5)]",0.04,0.63,–,–
Fc1ccc(Cn2c(NC3CCN(C4CCN(c5nccs5)CC4)CC3)nc3ccccc32)cc1 [Compound 52],1.25,0.63,–,–
Fc1ccc(Cn2c(NC3CCN(CCNc4nccs4)CC3)nc3ccccc32)cc1 [Compound 58],–,–,0.04,0.02
Cc1ccc(Cn2c(NC3CCN(CCNc4nccs4)CC3)nc3ccccc32)cc1 [Compound 62],0.16,0.63,–,–
"Fc1ccc(Cn2c(NC3CCN(CCOc4nccs4)CC3)nc3ccccc32)cc1 [Compound 72, 1-[(4-fluorophenyl)methyl]-N-[1-[2-(2-thiazolyloxy)ethyl]-4-piperidinyl]-1H-benzimidazol-2-amine]",0.08,0.63,–,–
"Cn1ccnc1SCCN1CCC(Nc2nc3ccccc3n2Cc2ccc(F)cc2)CC1 [Compound 75, 1-[(4-fluorophenyl)methyl]-N-[1-[2-[(1-methyl-1H-imidazol-2-yl)thio]ethyl]-4-piperidinyl]-1H-benzimidazol-2-amine]",0.08,–,0.08,–
"O=C(NCCN1CCC(Nc2nc3ccccc3n2Cc2ccc(F)cc2)CC1)c1cc2ccccc2[nH]1 [Compound 76, N-[2-[4-[[1-[(4-fluorophenyl)methyl]-1H-benzimidazol-2-yl]amino]-1-piperidinyl]ethyl]-1H-indole-2-carboxamide]",0.16,–,–,–

Compound,ED50 [1] [mg/kg],"ED50 [2, 3] [mg/kg]","ED50 [2, 4] [mg/kg]","compound 48/80 lethality test in rats-ED50 ([1]; dose protecting 50% of animals, 0.5 mg/kg, 240 min) [mg/kg body weight]"
"O=C(Cc1c[nH]c2ccccc12)NCCN1CCC(Nc2nc3ccccc3n2Cc2ccc(F)cc2)CC1 [Compound 77, N-[2-[4-[[1-[(4-fluorophenyl)methyl]-1H-benzimidazol-2-yl]amino]-1-piperidinyl]ethyl]-1H-indol-3-acetamide]",0.16,–,–,–
"Cn1c(C(=O)NCCN2CCC(Nc3nc4ccccc4n3Cc3ccc(F)cc3)CC2)cc2ccccc21 [Compound 78, N-[2-[4-[[1-[(4-fluorophenyl)methyl]-1H-benzimidazol-2-yl]amino]-1piperidinyl]ethyl]-1-methyl-1H-indole-2-carboxamide]",0.16,–,–,–
"Fc1ccc(Cn2c(NC3CCN(CCNc4ncc[nH]4)CC3)nc3ccccc32)cc1 [Compound 79, 1-[(4-fluorophenyl)methyl]-N-[1-[2-(1H-imidazol-2-ylamino)ethyl]-4-piperidinyl]-1H-benzimidazol-2-amine]",0.02,–,0.04,–
"CC(C)n1ccnc1NCCN1CCC(Nc2nc3ccccc3n2Cc2ccc(F)cc2)CC1.O [Compound 81, 1-[(4-fluorophenyl)methyl]-N-[1-[2-[[1-(1-methylethyl)-1H-imidazol-2-yl]amino]-ethyl]-4-piperidinyl]-1H-benzimidazol-2-amine mono hydrate]",0.04,0.31,–,–
"Fc1ccc(Cn2ccnc2NCCN2CCC(Nc3nc4ccccc4n3Cc3ccc(F)cc3)CC2)cc1 [Compound 82, 1-[(4-fluorophenyl)methyl]-N-[1-[2-[[1-[(4-fluorophenyl)methyl]-1H-imidazol-2-yl]amino]ethyl]-4-piperidinyl]-1H-benzimidazol-2-amine cyclohexanesulfamate(1:3).dihydrate]",0.16,–,–,–
"Cc1coc(NCCN2CCC(Nc3nc4ccccc4n3Cc3ccc(F)cc3)CC2)n1 [Compound 84, 1-[(4-fluorophenyl)methyl]-N-[1-[2-[(4-methyl-2-oxazolyl)amino]ethyl]-4-piperidinyl]-1H-benzimidazol-2-amine]",0.16,0.63,–,–
"Cc1csc(NCCN2CCC(Nc3nc4ccccc4n3Cc3ccc(F)cc3)CC2)n1 [Compound 85, 1-[(4-fluorophenyl)methyl]-N-[1-[2-[(4-methyl-2-thiazolyl)amino]ethyl]-4-piperidinyl]-1H-benzimidazol-2-amine]",0.08,–,0.04,–
Fc1ccc(Cn2c(NC3CCN(CCNc4nc(-c5ccncc5)cs4)CC3)nc3ccccc32)cc1 [Compound 86],0.31,1.25,–,–
Fc1ccc(Cn2c(NC3CCN(CCNc4nc(-c5ccccn5)cs4)CC3)nc3ccccc32)cc1 [Compound 87],0.31,0.63,–,–
"N=C(N)Nc1nc(CCN2CCC(Nc3nc4ccccc4n3Cc3ccc(F)cc3)CC2)cs1 [Compound 90, N-[4-[2-[4-[[1-[(4-fluorophenyl)methyl]-1H-benzimidazol-2-yl]amino]-1-piperidinyl]ethyl-2-thiazolyl]guanidinetrihydrobromide]",0.04,0.31,–,–
"Nc1nc(CCN2CCC(Nc3nc4ccccc4n3Cc3ccc(F)cc3)CC2)cs1 [Compound 91, N-[1-[2-(2-amino-4-thiazolyl)ethyl]-4-piperidinyl]-1-[(4-fluorophenyl)methyl]-1H-benzimidazol-2-amine]",0.08,–,–,–
"Fc1ccc(Cn2c(NC3CCN(CCc4csc(-c5ccccc5)n4)CC3)nc3ccccc32)cc1 [Compound 92, 1-[(4-fluorophenyl)methyl]-N-[1-[2-(2-phenyl-4-thiazolylethyl]-4-piperidinyl]-1H-benzimidazol-2-aminedihydrochloride monohydrate]",0.63,–,–,–
"CCOC(=O)N(CCN1CCC(Nc2nc3ccccc3n2Cc2ccc(F)cc2)CC1)c1nccs1 [Compound 101, ethyl[2-[4-[[1-[(4-fluorophenyl)methyl]-1H-benzimidazol-2-yl]amino]-1-piperidinyl]ethyl](2-thiazolyl)carbamate]",0.31,–,–,–
"CNC(=S)N(CCN1CCC(Nc2nc3ccccc3n2Cc2ccc(F)cc2)CC1)c1nccs1 [Compound 104, N-[2-[4-[[1-[(4-fluorophenyl)methyl]-1H-benzimidazol-2-yl]amino]-1-piperidinyl]ethyl]-N'-methyl-N-(2-thiazolyl)thiourea]",0.16,–,–,–
Fc1ccc(Cn2c(NC3CCN(CCNc4nccn4-c4ncccn4)CC3)nc3ccccc32)cc1 [Compound 105],0.16,–,–,–
"CC(c1ccc(Cl)cc1)n1ccnc1NCCN1CCC(Nc2nc3ccccc3n2Cc2ccc(F)cc2)CC1 (centres unmarked) [Compound 106, N-[1-[2-[[1-[1-(4-chlorophenyl)ethyl]-1H-imidazol-2-yl]amino]ethyl]-4-piperidinyl]-1-[(4-fluorophenyl)methyl]-1H-benzimidazol-2-amine cyclohexanesulfamate(1:3).dihydrate]",0.63,–,–,–
